From patent US9351974B2, “Substituted pteridinones for the treatment of cancer” (OSI Pharmaceuticals, LLC, priority 2011, dated 2016)

The compounds below were run against T1, His-tagged full-length RSK2 (RPS6KA3) (Homo sapiens, UniProt P51812) (assay: RSK2 Omnia Assay for compound IC50 determination). Conditions: ATP 15 μM, n=2, read-out: Mean RSK2 Biochem IC50.
T1 construct: His-tagged full-length RSK2 (RPS6KA3, Invitrogen PV3323); His; purchased Invitrogen PV3323
T1 sequence (P51812 whole entry): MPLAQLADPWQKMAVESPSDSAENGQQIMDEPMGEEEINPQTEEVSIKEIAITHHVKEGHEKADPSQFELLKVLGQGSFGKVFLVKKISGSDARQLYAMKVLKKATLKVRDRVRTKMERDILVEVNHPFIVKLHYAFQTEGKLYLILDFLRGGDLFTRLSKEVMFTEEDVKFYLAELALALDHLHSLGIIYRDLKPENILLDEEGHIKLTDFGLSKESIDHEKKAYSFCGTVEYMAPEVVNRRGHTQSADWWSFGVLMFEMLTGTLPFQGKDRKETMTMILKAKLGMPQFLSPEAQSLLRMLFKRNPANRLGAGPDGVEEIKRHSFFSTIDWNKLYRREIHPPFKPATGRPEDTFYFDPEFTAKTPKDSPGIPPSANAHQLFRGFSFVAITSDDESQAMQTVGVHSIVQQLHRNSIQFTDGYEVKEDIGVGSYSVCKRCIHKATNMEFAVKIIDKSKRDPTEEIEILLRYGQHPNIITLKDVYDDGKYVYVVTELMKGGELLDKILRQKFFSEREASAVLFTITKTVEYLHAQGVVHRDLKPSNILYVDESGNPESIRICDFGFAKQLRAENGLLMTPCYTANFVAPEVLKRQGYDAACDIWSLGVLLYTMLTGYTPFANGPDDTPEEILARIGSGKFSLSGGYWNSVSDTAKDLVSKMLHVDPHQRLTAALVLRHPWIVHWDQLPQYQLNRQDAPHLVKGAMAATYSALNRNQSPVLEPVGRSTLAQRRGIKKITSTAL
Format: biochemical
Method: RSK1 & RSK2 Omnia Assay Protocol for Compound IC50 Determination
The Omnia Assay (Invitrogen) has been optimized for His-tagged full length RSK1 (RPS6KA1, Millipore 14-509) and for His-tagged full-length RSK2 (RPS6KA3, Invitrogen PV3323). In this assay system, Omnia ST Peptide 6 (Invitrogen KNZ1061) functions as a substrate for RSK1 or RSK2. Phosphorylation of this SOX-containing peptide results in an increase in fluorescence at 485 nm upon excitation at 360 nm.
Assays are carried out in 384-well OptiPlates (Perkin Elmer 6007290) in a total volume of 20 μL containing RSK1 ([…]) or RSK2 ([…]), Omnia ST Peptide 6 (5 μM), ATP (15 μM, Km=16.3 μM), and test compound (variable) in RSK assay buffer (50 mM HEPES, pH 7.5, 10 mM MgCl2, 0.01% Tween-20, 1% glycerol, 1 mM DTT, 1 mM EGTA, 0.01% BSA) with 1% DMSO.
IC50s for test compounds are typically determined using an 11-point three-fold serial dilution with a final assay concentration ranging either from 170 μM to […] or from 17 μM to […]. All compound concentrations are assayed in duplicate. Initial compound dilutions are prepared at 100× concentration in 100% DMSO from a 10 mM stock solution. Compounds are further diluted 1:25 in assay buffer resulting in a 4× concentrated solution.
To run the assay 5 μL of the above 4× concentrated compound solution (or 4% DMSO for positive controls) is added to the assay plate followed by 5 μL of a solution containing peptide (20 μM) and ATP (60 μM) in assay buffer. The reaction is initiated by the addition of 10 μL of RSK1 ([…]) or RSK2 ([…]) in assay buffer, or assay buffer alone for negative controls. The increase in fluorescence due to peptide phosphorylation is monitored continuously as a function of time using a Spectramax M5 plate reader (Molecular Devices) equipped with SoftMax Pro software.
The slopes from the linear portion of progress curves are used to determine IC50 values by non-linear curve-fitting to a four-parameter equation using GraphPad Prism (GraphPad Software, Inc.) or XLFit (IDBS). IC50's are determined in duplicate (n=2) and Ki values are calculated from IC50 values using the Cheng-Prusoff equation assuming a competitive mode of inhibition.
For `C[C@@H]1C(=O)N(c2cccnc2)c2cnc(Nc3cc(F)c(O)c(F)c3)nc2N1C1CCCCC1` [compound 160, (7R)-8-cyclohexyl-2-[(3,5-difluoro-4-hydroxyphenyl)amino]-7-methyl-5-(pyridin-3-yl)-7,8-dihydropteridin-(5H)-one.], the IC50 was ≤ 100 nM. Work on `C[C@@H]1C(=O)N(c2cccc(C#N)c2)c2cnc(Nc3ccc(C#N)cc3)nc2N1C1CCC(F)(F)CC1` [compound 274, 3-[(7R)-2-[(4-cyanophenyl)amino]-8-(4,4-difluorocyclohexyl)-7-methyl-6-oxo-7,8-dihydropteridin-5(6H)-yl]benzonitrile] yielded an IC50 of 100 to 1000 nM. `CC[C@@H]1C(=O)N(c2ccc(N3CCOCC3)nc2)c2cnc(Nc3cc(F)c4[nH]ncc4c3)nc2N1C1CCCCC1` [compound 292, (7R)-8-cyclohexyl-7-ethyl-2-[(7-fluoro-1H-indazol-5-yl)amino]-5-[6-(morpholin-4-yl)pyridin-3-yl]-7,8-dihydropteridin-6(5H)-one] was tested, and the IC50 was ≤ 100 nM. For `C[C@@H]1C(=O)N(c2ccc(C(F)(F)F)cc2)c2cnc(Nc3ccc4[nH]ncc4c3)nc2N1C1CCCCC1` [Example 35, (7R)-8-cyclohexyl-2-(1H-indazol-5-ylamino)-7-methyl-5-[4-(trifluoromethyl)phenyl]-7,8-dihydropteridin-6(5H)-one], the IC50 was ≤ 100 nM. With `COc1ccc(N2C(=O)[C@@H](C)N(C3CCOCC3)c3nc(Nc4ccc5[nH]c(=O)oc5c4)ncc32)cc1C#N` [compound 197, 2-Methoxy-5-[(7R)-7-methyl-6-oxo-2-[(2-oxo-2,3-dihydro-1,3-benzoxazol-6-yl)amino]-8-(tetrahydro-2H-pyran-4-yl)-7,8-dihydropteridin-5(6H)-yl]benzonitrile] the IC50 was ≤ 100 nM. In the case of `C[C@@H]1C(=O)N(c2ccc(NS(C)(=O)=O)cc2)c2cnc(Nc3ccc4[nH]ncc4c3)nc2N1C1CCCCC1` [Example 47, N-{4-[(7R)-8-cyclohexyl-2-(1H-indazol-5-ylamino)-7-methyl-6-oxo-7,8-dihydropteridin-5(6H)-yl]phenyl}methanesulfonamide], the IC50 is reported as ≤ 100 nM. For `COc1ccc(N2C(=O)[C@@H](C)N([C@H]3CC[C@H](C(F)(F)F)CC3)c3nc(Nc4cc(F)c5[nH]ncc5c4)ncc32)cc1OC` [compound 258, (7R)-5-(3,4-dimethoxyphenyl)-2-[(7-fluoro-1H-indazol-5-yl)amino]-7-methyl-8-[trans-4-(trifluoromethyl)cyclohexyl]-7,8-dihydropteridin-6(5H)-one], the IC50 was ≤ 100 nM. For `C[C@@H]1C(=O)N(c2ccc(N3CCCC3)nc2)c2cnc(Nc3cc(F)c4[nH]ncc4c3)nc2N1C1CCC(C)(C)CC1` [Example 214, (7R)-8-(4,4-dimethylcyclohexyl)-2-[(7-fluoro-1H-indazol-5-yl)amino]-7-methyl-5-[6-(pyrrolidin-1-yl)pyridin-3-yl]-7,8-dihydropteridin-6(5H)-one], the IC50 was ≤ 100 nM. `CNC(=O)c1cccc(N2C(=O)[C@@H](C)N(C3CCCCC3)c3nc(Nc4ccc5[nH]ncc5c4)ncc32)c1` [Example 46, 3-[(7R)-8-cyclohexyl-2-(1H-indazol-5-ylamino)-7-methyl-6-oxo-7,8-dihydropteridin-5(6H)-yl]-N-methylbenzamide] was tested, and the IC50 was ≤ 100 nM. For `C[C@@H]1C(=O)N(c2cccc(C#N)c2)c2cnc(Nc3ccc4[nH]ncc4c3F)nc2N1C1CCCCC1` [compound 100, 3-[(7R)-8-cyclohexyl-2-[(4-fluoro-1H-indazol-5-yl)amino]-7-methyl-6-oxo-7,8-dihydropteridin-5(6H)-yl]benzonitrile], the IC50 was ≤ 100 nM. `COc1ccc(N2C(=O)[C@@H](C)N(C3CCC(F)(F)CC3)c3nc(Nc4ccc5[nH]c(=O)oc5c4)ncc32)cc1C#N` [compound 283, 5-[(7R)-8-(4,4-difluorocyclohexyl)-7-methyl-6-oxo-2-[(2-oxo-2,3-dihydro-1,3-benzoxazol-6-yl)amino]-7,8-dihydropteridin-5(6H)-yl]-2-methoxybenzonitrile] showed an IC50 of 100 to 1000 nM. With `C[C@@H]1C(=O)N(c2cccc(C#N)c2)c2cnc(Nc3cc4cn[nH]c4cc3F)nc2N1C1CCCCC1` [Example 56, 3-[(7R)-8-cyclohexyl-2-[(6-fluoro-1H-indazol-5-yl)amino]-7-methyl-6-oxo-7,8-dihydropteridin-5(6H)-yl]benzonitrile] the IC50 was ≤ 100 nM. For `C[C@@H]1C(=O)N(c2cccc([S+](C)[O-])c2)c2cnc(Nc3ccc4[nH]ncc4c3)nc2N1C1CCCCC1` (stereo partly drawn) [compound 114, (7R)-8-cyclohexyl-2-(1H-indazol-5-ylamino)-7-methyl-5-[3-(methylsulfinyl)phenyl]-7,8-dihydropteridin-6(5H)-one], the IC50 was ≤ 100 nM. `C[C@@H]1C(=O)N(c2ccc(N3CCCCC3)nc2)c2cnc(Nc3cc(F)c4[nH]ncc4c3)nc2N1C1CCCCC1` [compound 142, (7R)-8-cyclohexyl-2-[(7-fluoro-1H-indazol-5-yl)amino]-7-methyl-5-[6-(piperidin-1-yl)pyridin-3-yl]-7,8-dihydropteridin-6(5H)-one] was tested, and the IC50 was ≤ 100 nM. `C[C@@H]1C(=O)N(c2ccccc2)c2cnc(Nc3ccc4[nH]ncc4c3)nc2N1CC1CCOCC1` [Example 74, (7R)-2-(1H-indazol-5-ylamino)-7-methyl-5-phenyl-8-(tetrahydro-2H-pyran-4-ylmethyl)-7,8-dihydropteridin-6(5H)-one] was tested, and the IC50 was ≤ 100 nM. For `C[C@@H]1C(=O)N(c2cccc(C#N)c2)c2cnc(Nc3ccc4[nH]c(=O)oc4c3)nc2N1C1CCC(F)(F)CC1` [compound 266, 3-[(7R)-8-(4,4-difluorocyclohexyl)-7-methyl-6-oxo-2-[(2-oxo-2,3-dihydro-1,3-benzoxazol-6-yl)amino]-7,8-dihydropteridin-5(6H)-yl]benzonitrile], the IC50 was ≤ 100 nM. In the case of `C[C@@H]1C(=O)N(c2cccc(F)c2)c2cnc(Nc3ccc4[nH]ncc4c3)nc2N1C1CCCCC1` [Example 25, (7R)-8-cyclohexyl-5-(3-fluorophenyl)-2-(1H-indazol-5-ylamino)-7-methyl-7,8-dihydropteridin-6(5H)-one], the IC50 is reported as ≤ 100 nM. In the case of `C[C@@H]1C(=O)N(c2cccc(C#N)c2)c2cnc(Nc3cc(F)c4[nH]ncc4c3F)nc2N1C1CCCCC1` [compound 130, 3-[(7R)-8-cyclohexyl-2-[(4,7-difluoro-1H-indazol-5-yl)amino]-7-methyl-6-oxo-7,8-dihydropteridin-5(6H)-yl]benzonitrile], the IC50 is reported as ≤ 100 nM. `C[C@@H]1C(=O)N(c2cccc(C#N)c2)c2cnc(Nc3cc(F)c(O)c(F)c3)nc2N1C1CCCCC1` [compound 158, 3-[(7R)-8-cyclohexyl-2-[(3,5-difluoro-4-hydroxyphenyl)amino]-7-methyl-6-oxo-7,8-dihydropteridin-5(6H)-yl]benzonitrile] was tested, and the IC50 was ≤ 100 nM. For `CO[C@H]1CC[C@H](N2c3nc(Nc4cc5cn[nH]c5cn4)ncc3N(c3cccc(C#N)c3)C(=O)[C@H]2C)CC1` [compound 230, 3-[(7R)-8-(trans-4-methoxycyclohexyl)-7-methyl-6-oxo-2-(1H-pyrazolo[3,4-c]pyridin-5-ylamino)-7,8-dihydropteridin-5(6H)-yl]benzonitrile], the IC50 was 100 to 1000 nM. `COc1ccc(N2C(=O)[C@@H](C)N([C@H]3CC[C@H](OC)CC3)c3nc(Nc4cc(F)c5[nH]ncc5c4)ncc32)cc1OC` [compound 225, (7R)-5-(3,4-dimethoxyphenyl)-2-[(7-fluoro-1H-indazol-5-yl)amino]-8-(trans-4-methoxycyclohexyl)-7-methyl-7,8-dihydropteridin-6(5H)-one] was tested, and the IC50 was ≤ 100 nM.
